Test results taken from patent US9271981B2, “Pyrrolo[2,3-D]pyrimidine compounds” (Zoetis Services LLC, priority 2008, dated 2016).

Experiments:
[1] = tested on: T-cell proliferation in canine whole blood; experiment: Canine in vitro T-cell Proliferation Assay; assay type: cell-based; conditions: Canis lupus familiaris, ConA + canine IL-2, tritiated thymidine
Procedure: Methods: Canine whole blood was collected in sodium heparin tubes from 29 beagle dogs and 23 mixed breed dogs. Whole blood (20 μL) was plated in 96-well plates (Costar 3598) with 180 μL of medium (RPMI 1640, Gibco #21870-076, with 1% heat inactivated fetal bovine serum, Gibco #10082-39, 292 μg/ml L-glutamine, Gibco #250030-081, 100 u/ml penicillin and 100 μg streptomycin per ml, Gibco #15140-122) containing vehicle control or test compound (0.001 to 10 μM), concanavalin A (ConA; 1 μg/ml, Sigma C5275), and canine interleukin-2 (IL-2; 50 ng/ml, R&D Systems 1815-CL/CF). Wells containing whole blood, medium with vehicle control and no ConA or IL-2 were used as background controls. Plates were incubated at 37° C. for 48 hours. Tritiated thymidine, 0.4 μCi/well (Perkin Elmer, Net027A-005MC), was added for 20 additional hours. Plates were frozen and then thawed, washed and filtered using a Brandel MLR-96 cell harvester and prewet filter mats (Wallac 1205-401, Perkin Elmer). Filters were dried at 60° C. for one hour (Precision 16EG convection oven) and placed into filter sample bags (Wallac 1205-411, Perkin Elmer) with 10 mL of scintillant (Wallac 1205-440, Perkin Elmer). Sealed filters were counted on a LKB Wallac 1205 Betaplate liquid scintillation counter. Data were collected via Gterm Betaplate program v1.1 (Wallac copyright 1989-1990) and transformed into percent inhibition, calculated using the following formula: […]

[2] = tested on: flea allergic dogs; experiment: Reducing Flea-associated Pruritus and Dermatitis Assay; assay type: in vivo; conditions: for pruritus as compared to placebo (seconds of pruritus per 4 hour recording): 10% level of significance
Procedure: Twenty eight male and female dogs of mixed breeds ranging in weight from 5-35 kg and greater than one year of age were infested with approximately 100 unfed adult cat fleas (Ctenocephalides felis) 14 days prior to the start of dosing and reinfested with 30 fleas per dog every 4 days throughout the study. Seven days before dosing, twenty four dogs were randomized into three different treatment groups, placebo, 0.5 mg/kg or 0.25 mg/kg of the compound of Example 1b, based on visual analog scale (VAS) scores for skin lesions. Treatments were given orally twice a day for 28 days, and pruritic behavior as well as erythema and skin lesions were was assessed during the study. Pruritic behavior was recorded by placing dogs into pens with video recording capability, and recording their activity over 4 hours. Pruritic activity was quantitated by determining how many seconds the dogs spent scratching. Skin lesions were recorded by image capture of abdominal, inguinal region and the severity ranked according to a visual analog scale (VAS).
Video captured elapsed time of pruritic behavior was analyzed using a mixed linear model for repeated measures. The model included fixed effects of treatment and day of study and the interaction of treatment and day of study. Random effects included block, the interaction of block and treatment and error. Baseline data for pruritic behavior (day-1) were used as covariate in the analysis of pruritic behavior. Least squares means were used as estimates of treatment means. Standard errors of least squares means were estimated and 90% confidence intervals were constructed. Geometric means were computed from the least squares means for log-transformed data. A priori contrasts were used to assess treatment. Treatment differences were assessed at the 10% level of significance (P≦0.10).

| Compound | IC50 ([1]; whole blood from beagles) [nM] | IC50 ([1]; whole blood from mixed breed dogs) [nM] | pruritus as compared to placebo (seconds of pruritus per 4 hour recording) ([2]; 0.25 mg/kg orally twice a day, days 1, 4 and 12) | Lesions and erythema (VAS) ([2]; 0.5 mg/kg orally twice a day for 28 days, flea allergic dogs) | pruritus as compared to placebo (seconds of pruritus per 4 hour recording) ([2]; 0.5 mg/kg orally twice a day, days 1 and 20) |
| --- | --- | --- | --- | --- | --- |
| CNS(=O)(=O)C[C@H]1CC[C@H](N(C)c2ncnc3[nH]ccc23)CC1 [Example 1a, N-methyl-1-{trans-4-[methyl(7H-pyrrolo[2,3-d]pyrimidin-4-yl)amino]cyclohexyl}methanesulfonamide] | 66.3 | 138 |  |  |  |
| CNS(=O)(=O)C[C@H]1CC[C@H](N(C)c2ncnc3[nH]ccc23)CC1.O=C(O)/C=C\C(=O)O [Example 1b, N-methyl-1-{trans-4-[methyl(7H-pyrrolo[2,3-d]pyrimidin-4-yl)amino]cyclohexyl}methanesulfonamide maleic acid salt] |  |  | Significant reductions | significantly reduced | Significant reductions |
| CN(c1ncnc2[nH]ccc12)[C@H]1CC[C@H](CS(=O)(=O)NC2CCC2)CC1 [Example 2, N-cyclobutyl-1-{trans-4-[methyl(7H-pyrrolo[2,3-d]pyrimidin-4-yl)amino]cyclohexyl}methanesulfonamide] | 410 |  |  |  |  |
